Test results published in patent US10034476B2, “Insecticidal phenyl-or pyridyl-piperdine compounds” (Syngenta Participations AG, priority 2008, dated 2018).
Where a name gives a salt, the structure may show the parent alone.

What was measured:
Assay type in all cases: in vivo
Plutella xylostella = Plutella xylostella (diamond back moth) artificial diet test; conditions: 144 h, 200 ppm (concentration in well 18 ppm), L2 larvae, 6 days, larval mortality, growth regulation
Procedure: (§1) Plutella xylostella (Diamond Back Moth): 24-well microtiter plate (MTP) with artificial diet was treated with test solutions at an application rate of 200 ppm (concentration in well 18 ppm) by pipetting. After drying, the MTP's were infested with L2 larvae (7-12 per well). After an incubation period of 6 days, samples were checked for larval mortality and growth regulation.

Heliothis virescens = Heliothis virescens (tobacco budworm) egg/artificial diet test; conditions: 96 h, 200 ppm (concentration in well 18 ppm), eggs 0-24 h old on artificial diet, 4 days, egg mortality, larval mortality, growth regulation
Procedure: Heliothis virescens (Tobacco Budworm): Eggs (0-24 h old) were placed in 24-well microtiter plate on artificial diet and treated with test solutions at an application rate of 200 ppm (concentration in well 18 ppm) by pipetting. After an incubation period of 4 days, samples were checked for egg mortality, larval mortality, and growth regulation.

Diabrotica balteata = Diabrotica balteata (corn root worm) artificial diet test; conditions: 120 h, 200 ppm (concentration in well 18 ppm), L2 larvae, 5 days, larval mortality, growth regulation
Procedure: as §1, with “Diabrotica Balteata (Corn Root Worm): A” for “Plutella xylostella (Diamond Back Moth):”, “with” for “with L2”, “(L2) (6-10” for “(7-12”, “5” for “6”, “mortality,” for “mortality”

Spodoptera littoralis = Spodoptera littoralis (Egyptian cotton leafworm) cotton leaf disc spray test; conditions: foliar, 72 h, 200 ppm spray on cotton leaf discs, L1 larvae, 3 DAT, mortality, feeding behavior, growth regulation
Excerpt: Spodoptera littoralis (Egyptian Cotton Leafworm) Cotton leaf discs were placed on agar in a 24-well microtiter plate and sprayed with test solutions at an application rate of 200 ppm. After drying, the leaf discs were infested with 5 L1 larvae. The samples were checked for mortality, feeding behavior, and growth regulation 3 days after treatment (DAT).

Measured: pest or weed control at 200 ppm

O=C(Nc1cc(F)c(F)c(F)c1C1CCN(Cc2ccc(-c3ccc(F)cc3)cc2)CC1)c1ccnc(Cl)c1 [Compound E1, 2-chloro-N-{3,4,5-trifluoro-2-[1-(4′-fluoro-biphenyl-4-ylmethyl)-piperidin-4-yl]-phenyl}-isonicotinamide]
≥ 80%: all assays above

O=C(Nc1ccc(C(F)(F)F)cc1C1CCN(Cc2ccc(-c3ccc(Cl)cc3Cl)cc2)CC1)c1ccnc(Cl)c1 [Compound F1]
≥ 80%: all assays above

O=C(Nc1cc(F)c(F)c(F)c1C1CC[N+]([O-])(Cc2ccc(-c3ccc(F)cc3)cc2)CC1)c1ccnc(Cl)c1 (stereo not shown) [Compound G1, 2-chloro-N-{3,4,5-trifluoro-2-[1-(4′-fluoro-biphenyl-4-ylmethyl)-piperidin-4-yl]-phenyl}-isonicotinamide N-oxide]
≥ 80%: all assays above

O=C(Nc1ccc(C(F)(F)F)cc1C1CC[N+](O)(Cc2ccc(-c3ccc(F)cc3)cc2)CC1)c1ccnc(Cl)c1 (stereo not shown) [Compound J1]
≥ 80%: all assays above

O=C(Nc1ccc(C(F)(F)F)nc1C1CC[N+](O)(Cc2ccc(-c3ccc(F)cc3)cc2)CC1)c1ccnc(Cl)c1 (stereo not shown) [Compound K1, 2-chloro-N-[1′-(4′-fluoro-biphenyl-4-ylmethyl)-1′-oxy-6-trifluoromethyl-1′,2′,3′,4′,5′,6′-hexahydro-[2,4′]bipyridinyl-3-yl]-isonicotinamide 3-hydroxypropyl sulfonate salt]
≥ 80%: all assays above

O=C(Nc1cc(Cl)c(Cl)nc1C1CCN(Cc2ccc(-c3ccc(F)cc3)cc2)CC1)c1ccnc(Cl)c1 [Compound M1, hydrochloride]
≥ 80%: all assays above

O=C(Nc1ccc(C(F)(F)F)nc1C1CCN(Cc2ccc(-c3ccc(F)cc3)cc2)CC1)c1ccnc(Cl)c1 [Compound M4]
≥ 80%: all assays above
